This is an account of results in patent US20070043049A1, “Substituted heterocyclic diarylamine analogues” (Neurogen Corporation, priority 2003, published 2007).

By IC50 is commonly meant the concentration that inhibits the measured activity by half.

The assay concerns the target T1, human capsaicin receptor (Homo sapiens, UniProt Q8NER1).
T1 construct: pBK-CMV expression construct encoding the full length human capsaicin receptor; expressed in transfected cells
In words: Calcium mobilization assay, determination of antagonist activity (Example 6). The format is cell-based. The conditions noted are these: 50% decrease in fluorescence response of cells expressing human capsaicin receptor exposed to capsaicin. As for the experimental part:
A cDNA encoding full length human capsaicin receptor (SEQ ID NO:1, 2 or 3 of U.S. Pat. No. 6,482,611) was subcloned in the plasmid pBK-CMV (Stratagene, La Jolla, Calif.) for recombinant expression in mammalian cells.
Human embryonic kidney (HEK293) cells were transfected with the pBK-CMV expression construct encoding the full length human capsaicin receptor using standard methods. The transfected cells were selected for two weeks in media containing G418 (400 μg/ml) to obtain a pool of stably transfected cells. Independent clones were isolated from this pool by limiting dilution to obtain clonal stable cell lines for use in subsequent experiments.
Cells transfected with expression plasmids (as described in Example 4) and thereby expressing human capsaicin receptor are seeded and grown to 70-90% confluency in FALCON black-walled, clear-bottomed 96-well plates (#3904, BECTON-DICKINSON, Franklin Lakes, N.J.). The culture medium is emptied from the 96 well plates and FLUO-3 AM calcium sensitive dye (Molecular Probes, Eugene, Oreg.) is added to each well (dye solution: 1 mg FLUO-3 AM, 440 μL DMSO and 440 μl 20% pluronic acid in DMSO, diluted 1:250 in Krebs-Ringer HEPES (KRH) buffer (25 mM HEPES, 5 mM KCl, 0.96 mM NaH2PO4, 1 mM MgSO4, 2 mM CaCl2, 5 mM glucose, 1 mM probenecid, pH 7.4), 50 μl diluted solution per well). Plates are covered with aluminum foil and incubated at 37° C. for 1-2 hours in an environment containing 5% CO2. After the incubation, the dye is emptied from the plates, and the cells are washed once with KRH buffer, and resuspended in KRH buffer.
To measure the ability of a test compound to agonize or antagonize a calcium mobilization response in cells expressing capsaicin receptors to capsaicin or other vanilloid agonist, the EC50 of the agonist capsaicin is first determined. An additional 20 μl of KRH buffer and 1 μl DMSO is added to each well of cells, prepared as described above. 100 μl capsaicin in KRH buffer is automatically transferred by the FLIPR instrument to each well. Capsaicin-induced calcium mobilization is monitored using either FLUOROSKAN ASCENT (Labsystems; Franklin, Mass.) or FLIPR (fluorometric imaging plate reader system; Molecular Devices, Sunnyvale, Calif.) instruments. Data obtained between 30 and 60 seconds after agonist application are used to generate an 8-point concentration response curve, with final capsaicin concentrations of 1 nM to 3 μM. KALEIDAGRAPH software (Synergy Software, Reading, Pa.) is used to fit the data to the equation: y=a*(1/(1+(b/x)^c)) to determine the 50% excitatory concentration (EC50) for the response. In this equation, y is the maximum fluorescence signal, x is the concentration of the agonist or antagonist (in this case, capsaicin), a is the Emax, b corresponds to the EC50 value and c is the Hill coefficient. Determination of Agonist Activity
Test compounds are dissolved in DMSO, diluted in 20 μl KRH buffer so that the final concentration of test compounds in the assay well is between 1 μM and 5 μM, and added to cells prepared as described above. The 96 well plates containing prepared cells and test compounds are incubated in the dark, at room temperature for 0.5 to 6 hours. It is important that the incubation not continue beyond 6 hours. Just prior to determining the fluorescence response, 100 μl capsaicin in KRH buffer at twice the EC50 concentration determined as described above is automatically added by the FLIPR instrument to each well of the 96 well plate for a final sample volume of 200 μl and a final capsaicin concentration equal to the EC50. The final concentration of test compounds in the assay wells is between 1 μM and […]. […] The concentration of antagonist required to provide a 50% decrease, relative to the response observed in the presence of capsaicin and without antagonist, is the IC50 for the antagonist, and is preferably below 1 micromolar, 100 nanomolar, 10 nanomolar or 1 nanomolar.
In general terms: Calcium assays in cells follow changes in intracellular calcium, usually with a dye or a luminescent sensor.

T1 sequence (Q8NER1 whole entry): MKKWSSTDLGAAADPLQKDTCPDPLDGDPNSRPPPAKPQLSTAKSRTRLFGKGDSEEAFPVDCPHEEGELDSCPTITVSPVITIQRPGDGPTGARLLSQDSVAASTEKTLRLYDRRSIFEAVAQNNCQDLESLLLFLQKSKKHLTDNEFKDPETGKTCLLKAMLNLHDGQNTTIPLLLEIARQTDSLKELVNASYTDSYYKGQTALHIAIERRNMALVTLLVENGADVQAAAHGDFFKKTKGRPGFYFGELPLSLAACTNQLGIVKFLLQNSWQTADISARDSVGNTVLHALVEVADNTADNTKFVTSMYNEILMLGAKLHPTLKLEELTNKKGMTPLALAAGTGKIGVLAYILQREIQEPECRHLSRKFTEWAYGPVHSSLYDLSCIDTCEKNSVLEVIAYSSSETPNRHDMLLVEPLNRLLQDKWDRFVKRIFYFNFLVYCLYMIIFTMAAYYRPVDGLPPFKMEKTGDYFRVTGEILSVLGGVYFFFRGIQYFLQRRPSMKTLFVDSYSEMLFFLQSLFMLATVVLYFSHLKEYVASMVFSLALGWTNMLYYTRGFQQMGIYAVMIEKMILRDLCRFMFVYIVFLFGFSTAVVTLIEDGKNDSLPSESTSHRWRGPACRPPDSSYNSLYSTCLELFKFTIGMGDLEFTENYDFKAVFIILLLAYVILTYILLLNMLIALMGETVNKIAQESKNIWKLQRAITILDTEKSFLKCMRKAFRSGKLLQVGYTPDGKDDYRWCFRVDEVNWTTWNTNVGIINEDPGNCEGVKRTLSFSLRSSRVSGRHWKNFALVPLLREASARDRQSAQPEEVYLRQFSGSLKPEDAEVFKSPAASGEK

Turning to `CCCCN(CCCC)c1nc(Nc2ccc(C(F)(F)F)cc2)nc(N2CCN(c3ncccc3Cl)C[C@H]2C)n1` [Compound 34, N,N-Dibutyl-6-[4-(3-chloro-pyridin-2-yl)-2-methyl-piperazin-1-yl]-N′-(4-trifluoromethyl-phenyl)-[1,3,5]triazine-2,4-diamine (R)], the concentration for half-maximal inhibition (IC50) was at most 1000 nM.

On to `CC(C)N(C)c1nc(Nc2ccc(C(F)(F)F)cc2)nc(N2CCN(c3ncccc3Cl)C[C@H]2C)n1` [Compound 35, 6-[4-(3-Chloro-pyridin-2-yl)-2-methyl-piperazin-1-yl]-N-isopropyl-N-methyl-N′-(4-trifluoromethyl-phenyl)-[1,3,5]triazine-2,4-diamine (R)], for which the IC50 was at most 1000 nM. The figure for `C[C@@H]1CN(c2ncccc2Cl)CCN1c1nc(NCc2cccc(C(F)(F)F)c2)nc(Nc2ccc(C(F)(F)F)cc2)n1` [Compound 37, 6-[4-(3-Chloro-pyridin-2-yl)-2-methyl-piperazin-1-yl]-N-(3-trifluoromethyl-benzyl)-N′-(4-trifluoromethyl-phenyl)-[1,3,5]triazine-2,4-diamine (R)] is at most 1000 nM; for `C[C@@H]1CN(c2ncccc2Cl)CCN1c1nc(NCc2ccccc2)nc(Nc2ccc(C(F)(F)F)cc2)n1` [Compound 38, N-Benzyl-6-[4-(3-chloro-pyridin-2-yl)-2-methyl-piperazin-1-yl]-N′-(4-trifluoromethyl-phenyl)-[1,3,5]triazine-2,4-diamine (R)] it is at most 1000 nM.

As for `CC(C)CCNc1nc(Nc2ccc(C(F)(F)F)cc2)nc(N2CCN(c3ncccc3Cl)C[C@H]2C)n1` [Compound 39, 6-[4-(3-Chloro-pyridin-2-yl)-2-methyl-piperazin-1-yl]-N-(3-methyl-butyl)-N′-(4-trifluoromethyl-phenyl)-[1,3,5]triazine-2,4-diamine (R)], the IC50 is at most 1000 nM. With `CC(C)CNc1nc(Nc2ccc(C(F)(F)F)cc2)nc(N2CCN(c3ncccc3Cl)C[C@H]2C)n1` [Compound 40, 6-[4-(3-Chloro-pyridin-2-yl)-2-methyl-piperazin-1-yl]-N-isobutyl-N′-(4-trifluoromethyl-phenyl)-[1,3,5]triazine-2,4-diamine (R)] the figure was at most 1000 nM; with `C[C@@H]1CN(c2ncccc2Cl)CCN1c1nc(NCCCc2ccccc2)nc(Nc2ccc(C(F)(F)F)cc2)n1` [Compound 41, 6-[4-(3-Chloro-pyridin-2-yl)-2-methyl-piperazin-1-yl]-N-(3-phenyl-propyl)-N′-(4-trifluoromethyl-phenyl)-[1,3,5]triazine-2,4-diamine (R)], at most 1000 nM; with `CN(C)c1nc(Nc2ccc(C(F)(F)F)cc2)nc(N2CCN(c3ccccc3)CC2)n1` [Compound 42, N,N-Dimethyl-6-(4-phenyl-piperazin-1-yl)-N′-(4-trifluoromethyl-phenyl)-[1,3,5]triazine-2,4-diamine], at most 1000 nM. On to `CN(C)c1nc(Nc2ccc(C(F)(F)F)cc2)nc(N2CCN(c3ccccn3)CC2)n1` [Compound 43, N,N-Dimethyl-6-(4-pyridin-2-yl-piperazin-1-yl)-N′-(4-trifluoromethyl-phenyl)-[1,3,5]triazine-2,4-diamine], for which the IC50 was at most 1000 nM.

Consider `CN(C)c1nc(Nc2ccc(C(F)(F)F)cc2)nc(N2CCN(c3ncccc3Cl)CC2)n1` [Compound 44, 6-[4-(3-Chloro-pyridin-2-yl)-piperazin-1-yl]-N,N-dimethyl-N′-(4-trifluoromethyl-phenyl)-[1,3,5]triazine-2,4-diamine], for which the concentration for half-maximal inhibition (IC50) was at most 1000 nM. In the case of `FC(F)(F)c1ccc(Nc2nc(Cl)nc(N3CCN(c4ncccc4Cl)CC3)n2)cc1` [Compound 45, {4-Chloro-6-[4-(3-chloro-pyridin-2-yl)-piperazin-1-yl]-[1,3,5]triazin-2-yl}-(4-trifluoromethyl-phenyl)-amine], the IC50 is at most 1000 nM. For the molecule `CNc1nc(Nc2ccc(C(F)(F)F)cc2)nc(N2CCN(c3ncccc3Cl)CC2)n1` [Compound 46, 6-[4-(3-Chloro-pyridin-2-yl)-piperazin-1-yl]-N-methyl-N′-(4-trifluoromethyl-phenyl)-[1,3,5]triazine-2,4-diamine], the IC50 was at most 1000 nM. In the case of `CC(C)N(C)c1nc(Nc2ccc(C(F)(F)F)cc2)nc(N2CCN(c3ncccc3C(F)(F)F)CC2)n1` [Compound 47, N-Isopropyl-N-methyl-N′-(4-trifluoromethyl-phenyl)-6-[4-(3-trifluoromethyl-pyridin-2-yl)-piperazin-1-yl]-[1,3,5]triazine-2,4-diamine], the IC50 is at most 1000 nM.

Turning to `CCCN(C)c1nc(Nc2ccc(C(F)(F)F)cc2)nc(N2CCN(c3ncccc3C(F)(F)F)CC2)n1` [Compound 48, N-Methyl-N-propyl-N′-(4-trifluoromethyl-phenyl)-6-[4-(3-trifluoromethyl-pyridin-2-yl)-piperazin-1-yl]-[1,3,5]triazine-2,4-diamine], the IC50 is at most 1000 nM. Turning to `CC(C)N(C)c1nc(Nc2ccc(C(F)(F)F)cc2)nc(N2CCN(c3ncccc3Cl)CC2)n1` [Compound 49, 6-[4-(3-Chloro-pyridin-2-yl)-piperazin-1-yl]-N-isopropyl-N-methyl-N′-(4-trifluoromethyl-phenyl)-[1,3,5]triazine-2,4-diamine], the IC50 was at most 1000 nM. For the molecule `CCN(c1nc(Nc2ccc(C(F)(F)F)cc2)nc(N2CCN(c3ncccc3Cl)CC2)n1)C(C)C` [Compound 50, 6-[4-(3-Chloro-pyridin-2-yl)-piperazin-1-yl]-N-ethyl-N-isopropyl-N′-(4-trifluoromethyl-phenyl)-[1,3,5]triazine-2,4-diamine], the concentration for half-maximal inhibition (IC50) was at most 1000 nM.

As to `CN(C)c1nc(Nc2ccccc2)nc(N2CCN(c3ncccc3C(F)(F)F)CC2)n1` [Compound 51, N,N-Dimethyl-N′-phenyl-6-[4-(3-trifluoromethyl-pyridin-2-yl)-piperazin-1-yl]-[1,3,5]triazine-2,4-diamine], the IC50 is at most 1000 nM. In the case of `FC(F)(F)c1ccc(Nc2nc(N3CCCCC3)nc(N3CCN(c4ncccc4Cl)CC3)n2)cc1` [Compound 52, {4-[4-(3-Chloro-pyridin-2-yl)-piperazin-1-yl]-6-piperidin-1-yl-[1,3,5]triazin-2-yl}-(4-trifluoromethyl-phenyl)-amine], the IC50 was at most 1000 nM. For `C[C@H]1CN(c2ncccc2Cl)CCN1c1nc(Nc2ccc(C(F)(F)F)cc2)nc(N(C)C)n1` [Compound 53, 6-[4-(3-Chloro-pyridin-2-yl)-2-methyl-piperazin-1-yl]-N,N-dimethyl-N′-(4-trifluoromethyl-phenyl)-[1,3,5]triazine-2,4-diamine (S)], the 50% inhibitory concentration (IC50) is at most 1000 nM. With `CC(C)N(C)c1nc(Nc2ccccc2)nc(N2CCN(c3ncccc3Cl)CC2)n1` [Compound 54, 6-[4-(3-Chloro-pyridin-2-yl)-piperazin-1-yl]-N-isopropyl-N-methyl-N′-phenyl-[1,3,5]triazine-2,4-diamine] the figure was at most 1000 nM; with `CC(C)N(C)c1nc(Nc2ccccc2)nc(N2CCN(c3ncccc3C(F)(F)F)CC2)n1` [Compound 55, N-Isopropyl-N-methyl-N′-phenyl-6-[4-(3-trifluoromethyl-pyridin-2-yl)-piperazin-1-yl]-[1,3,5]triazine-2,4-diamine], at most 1000 nM.

As to `FC(F)(F)c1ccc(Nc2nc(N3CCN(c4ncccc4Cl)CC3)nc(N3CCN(c4ncccc4Cl)CC3)n2)cc1` [Compound 56, {4,6-Bis-[4-(3-chloro-pyridin-2-yl)-piperazin-1-yl]-[1,3,5]triazin-2-yl}-(4-trifluoromethyl-phenyl)-amine], the half-maximal inhibitory concentration (IC50) was at most 1000 nM.
